Results taken from BindingDB's records for patent US9926282 (Bristol-Myers Squibb, 2018).
pIC50: −log10 of the molar value.

Molecular target: Rho-associated protein kinase 1 (Homo sapiens, UniProt Q13464)
Test: In Vitro Assay
Experimental: Compounds were dissolved in DMSO so that the final concentration of DMSO was <2%, and the reaction was initiated with Rho kinase variants. After incubation, the reaction was terminated by the addition of EDTA and the phosphorylated and non-phosphorylated peptides separated using a LABCHIP 3000 Reader (Caliper Life Sciences). […] Compounds were tested in dose-response format, and the inhibition of kinase activity was calculated at each concentration of compound.

Sequence of Rho-associated protein kinase 1 (Q13464 whole entry): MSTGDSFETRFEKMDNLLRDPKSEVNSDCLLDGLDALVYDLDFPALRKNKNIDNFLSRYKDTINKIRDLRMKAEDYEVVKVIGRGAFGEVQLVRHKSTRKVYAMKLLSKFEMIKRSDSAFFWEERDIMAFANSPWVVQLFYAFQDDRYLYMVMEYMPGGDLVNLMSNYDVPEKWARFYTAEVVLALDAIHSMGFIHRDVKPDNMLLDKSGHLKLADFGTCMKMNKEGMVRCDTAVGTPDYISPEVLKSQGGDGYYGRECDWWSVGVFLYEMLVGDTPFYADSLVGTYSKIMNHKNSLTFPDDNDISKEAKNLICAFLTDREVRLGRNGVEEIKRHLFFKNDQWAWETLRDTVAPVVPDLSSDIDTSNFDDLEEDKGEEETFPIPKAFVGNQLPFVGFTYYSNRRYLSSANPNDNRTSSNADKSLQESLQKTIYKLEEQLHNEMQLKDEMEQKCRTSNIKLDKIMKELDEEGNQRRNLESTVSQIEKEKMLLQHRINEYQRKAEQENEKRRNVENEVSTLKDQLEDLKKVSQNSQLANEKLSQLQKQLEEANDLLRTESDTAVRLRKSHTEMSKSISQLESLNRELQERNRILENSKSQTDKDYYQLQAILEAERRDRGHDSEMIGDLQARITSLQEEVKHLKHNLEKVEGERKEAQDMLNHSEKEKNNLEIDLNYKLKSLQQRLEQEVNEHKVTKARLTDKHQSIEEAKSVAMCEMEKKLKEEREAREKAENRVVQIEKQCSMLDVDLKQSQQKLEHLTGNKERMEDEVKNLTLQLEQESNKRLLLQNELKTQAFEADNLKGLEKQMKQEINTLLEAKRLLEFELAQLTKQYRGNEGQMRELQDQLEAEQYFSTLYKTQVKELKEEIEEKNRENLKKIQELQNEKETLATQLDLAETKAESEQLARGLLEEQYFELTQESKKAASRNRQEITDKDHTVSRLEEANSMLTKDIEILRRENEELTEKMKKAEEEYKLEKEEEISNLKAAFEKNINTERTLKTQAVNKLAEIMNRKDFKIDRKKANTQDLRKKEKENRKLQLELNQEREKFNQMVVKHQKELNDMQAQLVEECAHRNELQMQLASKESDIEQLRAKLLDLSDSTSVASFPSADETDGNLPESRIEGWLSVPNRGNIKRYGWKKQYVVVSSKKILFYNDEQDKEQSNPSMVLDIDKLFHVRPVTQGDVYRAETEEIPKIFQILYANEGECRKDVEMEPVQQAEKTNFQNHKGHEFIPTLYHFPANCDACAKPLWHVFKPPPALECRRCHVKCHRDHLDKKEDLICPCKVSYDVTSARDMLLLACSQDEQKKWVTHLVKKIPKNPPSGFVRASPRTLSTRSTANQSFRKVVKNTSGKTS

| SMILES | pIC50 |
| --- | --- |
| O=C(Nc1ccc(-c2n[nH]c(=O)c3ccccc23)c(Cl)c1)c1nn(CC2CNC2)c2ccccc12 [US9926282, Example 327] | > 7.00 |
| CCc1c(C(=O)Nc2ccc(-c3n[nH]c(=O)c4ccccc34)cc2)nnn1-c1cccc(Cl)c1 [US9926282, Example 225] | > 7.00 |
| O=C(Nc1ccc(-c2n[nH]c(=O)c3ccccc23)cc1)c1cnn(C2CCCC2)c1 [US9926282, Example 374] | > 7.00 |
| O=C(Nc1ccc(-c2n[nH]c(=O)c3ccccc23)cc1)c1cc2ncccn2n1 [US9926282, Example 102] | > 7.00 |
| O=C(Nc1ccc(-c2n[nH]c(=O)c3ccccc23)cc1)c1nn(CC2CCNCC2)c2ccccc12 [US9926282, Example 342] | > 7.00 |
| O=C(Nc1ccc(-c2n[nH]c(=O)c3ccccc23)cc1)c1cnn(C2CCCCC2)c1 [US9926282, Example 373] | > 7.00 |
| O=C(Nc1ccc(-c2n[nH]c(=O)c3ccccc23)cc1)c1c[nH]c2ncc(F)cc12 [US9926282, Example 120] | > 7.00 |
| CCCn1cc(C(=O)Nc2ccc(-c3n[nH]c(=O)c4ccccc34)cc2)cn1 [US9926282, Example 382] | > 7.00 |
| O=C(Nc1ccc(-c2n[nH]c(=O)c3ccccc23)cc1)c1cnn(CC(O)C(F)(F)F)c1 (centres undefined) [US9926282, Example 378] | > 7.00 |
